# Measured values reported in patent US20260174839A1, “PN[…] OTHER VACCINES P[…] SAPONIN ADJUVANT” (priority 2022, published 2026).
# Columns and labels:
# Type in all cases: in vivo
# [1] = system: Streptococcus pneumoniae serotype 3; test: Opsonophagocytosis assay of serum of immunized mice, serotype 3; settings: PCV13 plus QS-21 vs PCV13 plus VSA-1
# Procedure: (§1) BALB/c mice used in this study were purchased from the Jackson Laboratory and maintained within an environmentally controlled, pathogen-free animal facility at the University of Alabama at Birmingham (UAB). Each human dose of PCV13 (trade name Prevnar 13 by Pfizer) is available in 0.5 mL single-dose pre-filled syringes. Groups of female BALB/c mice (8-10 weeks of age, six per group) were immunized via the subcutaneous route (s.c.) with saline, PCV 13 (50 μL), PCV13 (50 μL) plus QS-21 (20 μg), or PCV13 (50 μL) plus VSA-1 (100 μg) on days 0, 14 and 28. Serum samples were collected prior to the first immunization and at 2 weeks following the last immunization. Equal volumes of the six sera in each group were pooled together to create serum pools for each group. The serum was obtained after centrifugation and stored at −20° C. until assayed. All studies were performed according to National Institutes of Health guidelines, and protocols were approved by the UAB Institutional Animal Care and Use Committee.
# (§2) Opsonophagocytosis assay for serotypes 3, 4, 6B, 9V, 14, 19A, and 19F was performed using a 4-fold multiplexed opsonization assay described in the literature. […] Opsonic indices were determined as the interpolated serum dilution that kills 50% of bacteria. […]
# [2] = system: Streptococcus pneumoniae serotype 9V; test: Opsonophagocytosis assay of serum of immunized mice, serotype 9V; settings: PCV13 plus QS-21 vs PCV13 plus VSA-1
# Procedure: as §1, §2
# [3] = system: Streptococcus pneumoniae serotype 14; test: Opsonophagocytosis assay of serum of immunized mice, serotype 14; settings: adjuvant added to PCV13 vs PCV13 alone; BALB/c mice
# Procedure: as §1, §2
# [4] = system: Streptococcus pneumoniae serotype 19F; test: Opsonophagocytosis assay of serum of immunized mice, serotype 19F; settings: PCV13 plus QS-21 vs PCV13 plus VSA-1
# Procedure: as §1, §2
# [5] = system: Streptococcus pneumoniae seven serotypes (3, 4, 6B, 9V, 14, 19A and 19F); test: IgG subclass pneumococcal antibody ELISA, seven serotypes together (average, summary); settings: adjuvant added to PCV13; BALB/c mice
# Procedure: Four groups of female BALB/c mice (6 per group) were immunized with normal saline, one tenth human dose of PCV13, PCV13+VSA-1, and PCV13-QS21 on days 0, 14 […]. QS21 is another saponin adjuvant. Blood samples were obtained on day 42. IgG subclass of pneumococcal antibodies in the pooled serum samples of each group were determined with pneumococcal antibody ELISA for seven serotypes (3, 4, 6B, 9V, 14, 19A and 19F) using enzyme-conjugated antibodies against mouse IgG1, IgG2a or IgG3.
# [6] = system: Streptococcus pneumoniae serotypes 3, 4, 6B, 9V, 14, 19A, and 19F; test: Opsonophagocytosis assay, several serotypes together; settings: adjuvant added to PCV13 vs PCV13 alone, BALB/c mice
# Procedure: as §1, §2
substance,measurement,setting,value
QS-21,"opsonic titer, QS-21 superior to VSA-1, serotype 3",[1],1.3 fold
same,"opsonic titer, QS-21 superior to VSA-1, serotype 9V",[2],2.4 fold
same,"increase of PCV13-induced opsonic titers, serotype 14",[3],14.9 fold
same,"opsonic titer, QS-21 superior to VSA-1, serotype 19F",[4],1.2 fold
same,"IgG1, IgG2a and IgG3 antibodies titers against seven selected serotypes",[5],boosted
same,increase of PCV13-induced opsonic titers,[6],1.9-4.9 fold
